Experimental data: paper PMC12705613 (Frontiers in Microbiology, 2025)

What was measured:
gut microbiota from WKYs = test: Anaerobic incubation of drug with fecal gut microbiota from WKYs; format: in vitro ADME, rat; conditions: for Qualitative analysis: metabolism to other compounds: WKY gut microbiota in vitro, UHPLC-Q-TOF-MS; for Remaining content: WKY gut microbiota, 40 μM drug, anaerobic 37 °C, mGAM
Description: (§1) Fresh fecal samples from WKYs and SHRs were collected and immediately transferred to an anaerobic chamber (90% N₂, 5% CO₂, 5% H₂). Fecal suspensions were prepared by homogenizing 1 g of feces in 15 mL of sterile phosphate-buffered saline containing 0.1% L-cysteine. […] Bacteria-free controls contained equivalent drug volumes consistently. […] Drug remaining content and non-target metabolites screen were detected by ultra-high performance liquid chromatography coupled with triple quadrupole mass spectrometry (UHPLC-TQ-MS) and ultra-high performance liquid chromatography with quadrupole time-of-flight mass spectrometry (UHPLC-Q-TOF-MS), respectively. The sample preparation process can be found in the Supplementary material. For UHPLC-Q-TOF-MS analysis, the MS parameters and IDA criteria can be seen in Supplementary Table S1.
(§2) The sample processing procedures were tailored to align with the experimental objectives. For qualitative metabolite profiling, supernatants from the co-incubation of bacteria and drugs were collected at designated time points, filtered using a 0.22 μm membrane, lyophilized, and reconstituted in 200 μL of methanol. After vortexing and centrifuging for 10 minutes at 4°C and 12,000 rpm, the supernatant was transferred to an LC vial, and 5 μL aliquot was injected into the UHPLC-Q-TOF-MS/MS. For quantitative analysis, 100 μL aliquots were taken from the co-incubation supernatant and spiked with 1,000 μL of methanol containing 500 ng/mL of irbesartan. Following one minute of vortexing and centrifugation at 12,000 rpm for 10 minutes, the resulting supernatant was transferred to an LC vial, and a 5μL aliquot was injected into the UHPLC-TQ-MS/MS.

gut microbiota from SHRs = test: Anaerobic incubation of drug with fecal gut microbiota from SHRs; format: in vitro ADME, rat; conditions: for Qualitative analysis: metabolism to other compounds: SHR gut microbiota in vitro, UHPLC-Q-TOF-MS; for Remaining content: SHR gut microbiota, 40 μM drug, anaerobic 37 °C, mGAM
Description: as §1, §2

[1] = tested on: Enterococcus faecalis (ATCC 51299); format: in vitro ADME; conditions: tested concentrations; OD600
Description: (§3) Enterococcus faecalis (ATCC 51299, BNCC) was cultured in modified brain heart infusion (BHI) broth supplemented with L-cysteine HCl (0.5 g/L), vitamin K1 (10 mg/L), hemin (5 mg/L) and resazurin (1 mg/L). Limosilactobacillus reuteri (JCM 1112, Guangdong Academy of Sciences) was cultured in MRS medium at 37 °C in an anaerobic chamber (5%H2, 5%CO2 and 90%N2). Drug metabolism assays were performed in 96-well plates under optimal growth conditions for each strain. […] Each experiment comprised three biological replicates, including a bacteria-free control. The growth of strains was monitored by measuring OD600 (Eon Microplate Spectrophotometer, BioTek) every 2 h for the first 10 h, followed by 12 to 24 h intervals until 72 h. Supernatants were withdrawn at 6, 12, 24, 48, and 72 h. The remaining drug content and the formation of E-3179 were quantified via UHPLC-TQ-MS. The sample preparation for quantitative analysis was the same as in section 2.3.

[2] = tested on: Limosilactobacillus reuteri (JCM 1112); test: Co-incubation of drug with L. reuteri (degradation, growth); format: in vitro ADME; conditions: tested concentrations; OD600
Description: as §3

[3] = Metabolites detection in vivo in plasma, feces and urine (UHPLC-Q-TOF-MS); design: species or system rat; conditions: single oral losartan potassium 20 mg/kg
Description: For urine and feces, cumulative samples were collected over the following time intervals: 0–4, 4–8, 8–12, and 12–24 h after administration. The processing of the biological samples can be found in the Supplementary material.
The biological samples were processed as follows: For plasma, a total of 400 μL of pooled plasma was mixed by combining 50 μL aliquots from each time point. A 100 μL aliquot was mixed with 300 μL of methanol, vortexed for one minute, and centrifuged at 5,000 rpm for 10 minutes at 4°C [1]. In the case of urine, 1 mL was centrifuged at 4,000 rpm for 20 minutes at 4°C, and the supernatant was mixed with 2 mL of methanol, vortexed for one minute, and centrifuged at 12,000 rpm for 10 minutes at 4°C [2]. For fecal samples, 1.0 g of homogenized feces was extracted with 4 mL of methanol, sonicated in an ice-water bath for 20 minutes, and then centrifuged at 12,000 rpm for 10 minutes at 4°C [3]. Supernatants from the plasma, urine, and fecal extracts were evaporated under nitrogen gas, redissolved in methanol, and transferred to liquid chromatography vials. Samples were analyzed using UHPLC-Q-TOF-MS/MS for metabolite profiling.

[4] = Stability of the analytes in rat plasma at different storage conditions; format: in vitro ADME
Description: Analysis of QC samples was performed according to a standard curve, which was obtained from freshly prepared calibration standard samples. The autosampler stability was determined by placing samples in the autosampler rack at 8 ℃ for 24 h. The freeze-thaw stability was evaluated after three complete freeze-thaw cycles (-80 ℃ to 25 ℃) on consecutive days. The short-term stability was determined after samples were exposed to room temperature for 6 h. The long-term stability was assessed after storing the samples at -80 ℃ for 30 days. The analytes were considered stable if the deviation between the mean measured concentration and the nominal concentration was within ± 15.0%.

[5] = autosampler for 24 h (8 ℃), high nominal conc. (losartan 8000, E-3174 4000, E-3179 1600 ng/mL)
[6] = autosampler for 24 h (8 ℃), low nominal conc. (losartan 0.2, E-3174 10, E-3179 0.4 ng/mL)
[7] = autosampler for 24 h (8 ℃), middle nominal conc. (losartan 2000, E-3174 1000, E-3179 400 ng/mL)
[8] = room temperature for 6 h, high nominal conc. (losartan 8000, E-3174 4000, E-3179 1600 ng/mL)
[9] = room temperature for 6 h, low nominal conc. (losartan 0.2, E-3174 10, E-3179 0.4 ng/mL)
[10] = room temperature for 6 h, middle nominal conc. (losartan 2000, E-3174 1000, E-3179 400 ng/mL)
[11] = three freeze-thaw cycles, high nominal conc. (losartan 8000, E-3174 4000, E-3179 1600 ng/mL)
[12] = three freeze-thaw cycles, low nominal conc. (losartan 0.2, E-3174 10, E-3179 0.4 ng/mL)
[13] = three freeze-thaw cycles, middle nominal conc. (losartan 2000, E-3174 1000, E-3179 400 ng/mL)
[14] = −80°C for 30 days, high nominal conc. (losartan 8000, E-3174 4000, E-3179 1600 ng/mL)
[15] = −80°C for 30 days, low nominal conc. (losartan 0.2, E-3174 10, E-3179 0.4 ng/mL)
[16] = −80°C for 30 days, middle nominal conc. (losartan 2000, E-3174 1000, E-3179 400 ng/mL)

Row | SMILES | Qualitative analysis: metabolism to other compounds (gut microbiota from WKYs) | Remaining content (gut microbiota from WKYs; 0 h) | Remaining content (gut microbiota from WKYs; 12 h) | Remaining content (gut microbiota from WKYs; 24 h) | Remaining content (gut microbiota from WKYs; 48 h) | Qualitative analysis: metabolism to other compounds (gut microbiota from SHRs) | Remaining content (gut microbiota from SHRs; 0 h) | Remaining content (gut microbiota from SHRs; 12 h) | Remaining content (gut microbiota from SHRs; 24 h) | Remaining content (gut microbiota from SHRs; 48 h) | Inhibition of growth of E. faecalis [1] | Inhibition of growth of L. reuteri [2] | Abundance in feces and plasma, SHRs vs WKYs [3] | Stability RE [4, 5] | Stability RE [4, 6] | Stability RE [4, 7] | Stability RE [4, 8] | Stability RE [4, 9] | Stability RE [4, 10] | Stability RE [4, 11] | further results
1 | CCCCc1nc(Cl)c(C(=O)O)n1Cc1ccc(-c2ccccc2-c2nnn[nH]2)cc1 [E-3174] | neither losartan nor E-3174 was metabolized to other compounds | 37.45 ± 1.33 µM | 41.40 ± 1.42 µM | 39.27 ± 1.11 µM | 31.95 ± 1.41 µM | neither losartan nor E-3174 was metabolized to other compounds | 38.21 ± 0.11 µM | 39.55 ± 2.13 µM | 35.95 ± 1.41 µM | 27.07 ± 6.32 µM | did not inhibit the growth | did not inhibit the growth | lower in SHRs than in WKYs | 2.69% | -4.63% | -1.40% | 0.27% | 3.95% | 11.23% | 5.22% | Stability RE [4, 12]: 0.33%; Stability RE [4, 13]: 8.12%; Stability RE [4, 14]: 5.50%; Stability RE [4, 15]: 1.75%; Stability RE [4, 16]: 5.09%
2 | CCCCc1nc(Cl)c(CO)n1Cc1ccc(-c2ccccc2-c2nn[nH]n2)cc1 [Losartan, Losartan potassium] | neither losartan nor E-3174 was metabolized to other compounds | 37.78 ± 2.05 µM | 36.96 ± 2.06 µM | 36.03 ± 0.78 µM | 33.85 ± 0.96 µM | neither losartan nor E-3174 was metabolized to other compounds | 37.62 ± 1.03 µM | 38.41 ± 2.14 µM | 33.51 ± 2.35 µM | 32.98 ± 2.19 µM | did not inhibit the growth | did not inhibit the growth | lower in SHRs than in WKYs | 8.67% | -4.05% | 12.50% | 5.37% | 12.66% | 10.42% | 6.18% | Abundance in urine, SHRs vs WKYs [3]: more abundant in urine; Stability RE [4, 12]: -2.68%; Stability RE [4, 13]: 9.49%; Stability RE [4, 14]: 4.25%; Stability RE [4, 15]: -7.51%; Stability RE [4, 16]: 12.98%
